What all share (format): biochemical
Test [1] relates to protease of bovine liver microsomal membranes. The experiment in a line: Substrate kinetics/activity: formation of N-[3H]-AFC from peptide substrates by calf liver microsomal protease. The arrangement: key to substrate activity (Table 1, in words): Analogs referred to as inactive did not show detectable activity as substrate when used at concentration of 10mM and prolonged incubation time (16 hours); weakly active: Where marginal activity is noted, detectable activity is observed under prolonged incubation periods, but the activity is <5% that observer, with AFC-V-I-S. To be noted: for substrate activity (Table 1, in words): 10mM, prolonged incubation time (16 hours); for substrate activity for the protease (in words): calf liver microsomal preparation. On the procedure:
Briefly, N-[^3 H]-Acetyl-S-farnesyl-L-cys-L-val-L-ile-L-ser or N-[^3 H]acetyl-S-farnesyl-(SEQ ID NO: 1) at a concentration of 10 μM was incubated with bovine liver microsomal membranes (preparation described below). Periodically, 50 μL aliquots were withdrawn from the incubation mixture and the reaction was quenched with 500μL of chloroform/methanol (1:1, v/v). N-[^3 H]-AFC was extracted after thoroughly mixing the mixture for 1 minute and extracting with chloroform. Phase separation was achieved by adding 500μL of 1M citric acid. The chloroform layer was evaporated under nitrogen, resuspended in hexane/isopropanol/TFA (85:15:0.1), and authentic AFC standard was added for detection at 210 nm. The sample was injected on a silica HPLC column (Dynamax 60A, Rainin, Woburn, Mass.) and eluted with the same solvent. Radioactivity was counted with an on-line Berthold (Nashua, N.H.) LB 506-C HPLC radioactivity monitor.
(§1) Measurement of Proteolytic Activity Bovine liver microsomes were prepared according to Walter et al. (Meth. Enzym. 96:84, 1983). Kinetic measurements were performed by incubating 0.2 mg/mL protein with peptide substrates in 200 mM HEPES buffer containing 100 mM NaCl and 5 mM MgCl2 at pH 7.4, all in a final volume of 50 μL. The peptide substrates were added in DMSO to a final concentration of 4% (v/v) at 37°. The enzymatic reaction was quenched at the appropriate time by the addition of 0.5 mL of chloroform/methanol (1/1, v/v). Phase separation was achieved by adding 0.5 mL 1M citric acid. The chloroform layer was separated and evaporated under nitrogen and the residue was dissolved in n-hexane/2-propanol/TFA containing cold AFC. The formation of the product ^3 H-AFC was followed by HPLC analysis at 210 nm according to Perez-Sala et al. (Proc. Nat'l Acad. Sci. USA 88:3043, 1991). The samples were injected onto a normal phase HPLC column (Dynamax 60, Rainin, Woburn, Mass.) connected to a model LB 506-C on-line radioactivity monitor (Berthold, Nashua, N.H.). The column was eluted with n-hexane/2-propanol/TFA [85:15:0.1 (v/v/v)] at 1.5 mL/min.
For these experiments the substrates were dissolved in DMSC and incubated with calf liver microsomal membranes (0.2 mg of protein/mL) (Walter et al., supra) as described above. The amount of radioactive product was determined as described above. The reaction was quenched with 500 μL of CHCl3 /MeOH (1:1, v/v), and the radioactive N-terminal amino acid, i.e. N-[^3 H]AFC, was extracted after thoroughly agitating this mixture. Phase separation was achieved by adding 500 μL of 1M citric acid. After the chloroform layer was evaporated under nitrogen the residue was resuspended in n-hexane/isopropanol/TFA (90:10:0.01) and non-radioactive AFC was added as a standard for UV detection (210 nm). The sample was injected on a normal-phase HPLC column (Dynamax 60A, Rainin), and elution was performed with the same solvent at flow rate l.5 ml/min. Radioactivity was counted with an on-line Berthold (Nashua, NH) LB 506-C HPLC radioactivity monitor. The limit of efficiency of this assay was 3× the background counts/min (~150 cpm), which permits detection of products from substrates whose activities are 0.4% of the Vmax of AFC-Val-Ile-Ser (SEQ ID NO: 1) (1.13 pmol/min/mg). The retention times for AGC, AFC, and AGGC are 7.58, 7.26, and 7.00 min respectively, and for AGC-Val-Ile, AFC-Val-Ile, and AGGC-Val-Ile, they are 5.48, 6.54, and 5.08 min respectively.
On the technique in general: Liver microsomes are a subcellular fraction often used to study metabolism.

Test [2] relates to proteolytic enzymatic activity in dog pancreatic microsomes. Nature of the test: Proteolysis of tetrapeptide by dog pancreatic microsomes, extended incubation. Conditions: extended incubation conditions. The method, then: A similar stereospecific proteolytic enzymatic activity was also found in dog pancreatic microsomes. Under extended incubation conditions, where 54% of the tetrapeptide substrate 1 was cleaved by these microsomes, no proteolysis of D-AFC-val-ile-ser 2 could be detectec, (<1%). […] Synthesis of N-[^3 H]-acetyl-S-all-trans-farnesyl-L-Cys-L-Val-L-Ile-L-Ser or N-[^3 H]acetyl-S-farnesyl-(SEQ ID NO: 1) A solution of N-[^3 H]-acetyl-S-all-trans-farnesyl-L-Cys-L-Val-L-Ile (1.12 μmol, 250 mCi/mmol), L-serine hydrochloride methyl ester (20 mg, 0.13 mmol), and 1-hydroxybenzotriazole hydrate (17.4 mg, 0.13 mmol) in 3 mL of DMF was cooled to 0° C. 1-(3-Dimethylamino)propyl-3-ethyl carbodiimide hydrochloride (17.2 mg, 0.09 mmol) and N-methylmorpholine (14.1 μL, 13 mg, 0.13 mmol) were added at 0° C. The mixture was stirred at 0° C. under argon for 2 hours and at room temperature for 24 hours. Water (20 mL) was added and the mixture was extracted with ethyl acetate (4×20 mL). The combined organic layer was washed with 10% HCl, saturated sodium bicarbonate, and water, dried over anhydrous magnesium sulfate, filtered, and evaporated. The residue was dissolved in 3 mL of acetonitrile and 3 mL of 10% aqueous sodium carbonate was added. The mixture was stirred at room temperature for 24 h. 10% HCl was added to adjust the pH to 2. […] Recovery of radioactivity was 28.2 μCi, 1.13×10^-4 mmol. […]

Test [3] deals with protease of bovine liver microsomal membranes. Nature of the test: Inhibition of proteolysis of [3H]-AFC-val-ile-ser by calf liver microsomal protease. Conditions: 4 μM [3H]-AFC-val-ile-ser substrate; 20 μM of the dipeptide or tripeptide. On the procedure: as §1
As expected, the proteolysis of [^3 H]-AFC-val-ile-ser or N-[^3 H]-(SEQ ID NO: 1) was inhibited by the dipeptide substrate (AFC-val) and by the tripeptide substrate (AFC-val-ile). […]

Where [4] appears, read: Table 1, substrate of the protease, calf liver microsomal membranes, average of two determinations ±S.D., same enzyme preparation.
Setting [5] is: Table 1, substrate of the protease, calf liver microsomal membranes, average of two determinations ±S.D., same enzyme preparation, read-out: KM.
Where [6] appears, read: substrate of the protease, liver microsomal membranes, read-out: KM.

Where two headings read alike, the source gives them in different places. Non-standard residues stand in square brackets, D forms with d. No end group written: not given here. *: point of attachment. Farnesyl = CC(C)=CCC/C(C)=C/CC/C(C)=C/C*

As usually defined, the Km is the concentration of substrate that gives half-maximal velocity.

For the compound “N-[^3 H]-Acetyl-S-thio-t-butyl-L-Cys-L-Val-L-Ile [t-butylthio-Cys-Val-Ile (5)]”, the “substrate activity (Table 1, in words)” value in test [1] (Table 1) was “inactive”. The “substrate activity for the protease (in words)” value (from here on “substrate activity … (in words)”) in test [1] is recorded as “Neither analog was measurably processed”.

Consider “N-[^3 H]-acetyl-S-all-trans-farnesyl-L-Cys-L-Val-L-Ile-L-Met (C(Farnesyl)VIM; not fully specified (N-terminus); printed as N-[^3 H]-acetyl-S-all-trans-farnesyl-L-Cys-L-Val-L-Ile-L-Met; also: tritium label on the N-acetyl) [AFC-Val-Ile-Met (9)]”, for which the Vmax in test [1] (setting [4]) amounted to 126.3 pmol/min/mg. Also, in test [1] (setting [5]), the Km was determined as 2.96 ± 0.35 µM. Moreover, the “substrate activity … (in words)” value in test [1] is given as “good substrate”.

With `CC(=O)N[C@@H](CSC/C=C(\C)CC/C=C(\C)CCC=C(C)C)C(N)=O` [AFC amide], the “substrate activity … (in words)” value in test [1] is given as “not a substrate”.

Regarding “N-acetyl-S-all-trans-farnesyl-D-Cys-D-Val-L-Ile [D-D-L]”, in test [1], the “substrate activity … (in words)” value was “inactive”.

With “N-[^3 H]-acetyl-S-all-trans-farnesyl-D-Cys-L-Val-L-Ile-L-Ser [D-AFC-val-ile-ser]”, the “substrate activity … (in words)” value in test [1] is recorded as “did not occur”. The tetrapeptide cleaved in test [2] was less than 1%.

On to “N-acetyl-S-trans-geranyl-D-Cys-L-Val-Ile [AGC-Val-Ile (3) D-L-L]”, for which the “substrate activity (Table 1, in words)” value in test [1] (Table 1) was “inactive”. Further, the “substrate activity … (in words)” value in test [1] is on record as “no measurable protease activity”.

As for “N-[^3 H]-Acetyl-S-all-trans-geranylgeranyl-L-Cys-L-Val-L-Ile [AGGC-Val-Ile (2)]”, the Vmax amounted to 26.20 ± 0.97 pmol/min/mg in test [1] (setting [4]) and 19.35 pmol/min/mg in test [1] (substrate of the protease). The results for the Km in test [1] (setting [5]) and in test [1] (setting [6]) were 4.01 ± 0.4 µM and 14.6 µM, respectively. Besides, the “substrate activity … (in words)” value in test [1] was “good substrates”.

Take “N-[^3 H]-Acetyl-S-all-trans-geranylgeranyl-D-cys-L-Val-L-Ile [AGGC-Val-Ile (2) D-L-L]”: the “substrate activity (Table 1, in words)” value in test [1] (Table 1) was “inactive”. Moreover, in test [1], the “substrate activity … (in words)” value is recorded as “no measurable protease activity”.

“N-[^3 H]-acetyl-S-all-trans-farnesyl-L-Cys-L-Val-L-Ile-D-Met ({(3H)‑acetyl}-C(Farnesyl)VI[dM]) [AFC-Val-Ile-Met (10)]”: the “substrate activity (Table 1, in words)” value in test [1] (Table 1) is “weakly active (Where marginal activity is noted, detectable activity is observed under prolonged incubation periods, but the activity is <5% that observer, with AFC-V-I-S)”. For the same compound, the “substrate activity … (in words)” value in test [1] is recorded as “processed to some extent”.

For “N-[^3 H]-Acetyl-L-Cys-L-Val-L-Ile [Cys-Val-Ile (4)]”, the “substrate activity (Table 1, in words)” value in test [1] (Table 1) was “inactive”. For the same compound, in test [1], the “substrate activity … (in words)” value is listed as “Neither analog was measurably processed”.

Take “N-acetyl-S-farnesyl-L-cysteine-L-val-L-ile-L-ser [AFC-val-ile-ser]”: the Vmax in test [1] (bovine liver microsomal membranes) is reported as 0.236 ± 0.008 nmol/min/mg protein. The Km in test [1] (setting [6]) came to 4.8 µM. Also, the tetrapeptide cleaved in test [2] amounted to 54%.

For the compound “N-acetyl-S-all-trans-farnesyl-L-Cys-D-Val-L-Ile [AFC-Val-Ile (7)]”, the “substrate activity (Table 1, in words)” value in test [1] (Table 1) is “inactive”. Further, in test [1], the “substrate activity … (in words)” value was “did not have substrate activity”.

As to “acetyl-S-all-trans-farnesyl-L-Cys-Val-Ile [AFC-Val-Ile (1)]”, the “diminution in substrate cleavage” value in test [3] is “approximately 50%”. Moreover, the Vmax worked out at 57.7 ± 5 pmol/min/mg in test [1] (setting [4]) and 58 ± 4.9 pmol/min/mg in test [1] (substrate of the protease). In addition, the “Vmax, previously measured” value in test [1] (former measurement on a different microsome preparation from a different animal) turned out to be 65.6 pmol/min/mg. For the same compound, the Km in test [1] (former measurement on a different microsome preparation from a different animal, read-out: KM, previously measured) was 12.6 µM; in test [1] (setting [6]), 9.2 ± 0.21 µM.

On to “N-[^3 H]-acetyl-S-all-trans-farnesyl-L-Cys-L-Val-D-Ile [AFC-Val-Ile (8)]”, for which the “substrate activity (Table 1, in words)” value in test [1] (Table 1) is “inactive”. Also, the “substrate activity … (in words)” value in test [1] is given as “did not have substrate activity”.

In the case of “N-acetyl-S-trans-geranyl-L-Cys-L-Val-L-Ile [AGC-Val-Ile (3)]”, the Vmax in test [1] (setting [4]) is listed as 19.35 ± 1.12 pmol/min/mg. Besides, the Km in test [1] (setting [5]) is 14.6 ± 2.14 µM. The “substrate activity … (in words)” value in test [1] was “good substrates”.

For “N-Ac-S-all-trans-farnesyl-D-Cys-L-Val-L-Ile [AFC-Val-Ile (6)]”, the “substrate activity (Table 1, in words)” value in test [1] (Table 1) is “inactive”.
